How the values were obtained:
human CYP11B2 = human CYP11B2 (Homo sapiens (Human), UniProt P19099); assay: V79-Human-CYP11B2 cell assay (aldosterone formation from 11-deoxycorticosterone, HTRF); type: cell-based; settings: for IC50: V79 cells stably expressing human CYP11B2, 125 nM 11-deoxycorticosterone, 3 hours
Experimental: (§1) Methods for V79-Human-CYP11B2 and V79-Human-CYP11B1 Assays: V79 cell lines stably expressing the either the human CYP11B2 or the human CYP11B1 enzyme were generated using a standard transfection protocol. V79 cells were transfected with plasmids pTriEx3-Hygro-hCyp11B2 or pTriEx3-Hygro-hCyp11B1 using Lipofectamine2000 reagent. V79 cells that stably express the human CYP11B2 or human CYP11B1 enzyme were selected for and maintained in DMEM supplemented with 10% FBS and 400 μg/mL hygromycin for ˜2 weeks. Single cell clones were generated by infinite dilution in DMEM supplemented with 10% FBS and 400 μg/mL hygromycin until single colonies were obtained. Clones V79-hCYP11B2-CLE9 and V79-hCYP11B1-8CLC7, were determined to produce the most aldosterone and cortisol, respectively, and were selected for inhibitor screening. For testing of inhibitors, cells were harvested at 80% confluency with 0.5% Trypsan-EDTA, washed once in PBS, and reconstituted in DMEM+0.1% BSA media at a cell concentration of 600,000 cells/mL for the CYP11B2 assay and 280,000 cells/mL for the CYP11B1 assay. 25 μL of cells were added to a 384 well tissue culture treated plate and mixed with 0.3 μL of inhibitor or DMSO (1% final DMSO concentration) for 1 hour at 37° C., 5% CO2. After pre-incubation with inhibitor, the reaction was initiated by adding 5 μL of substrate (final concentration of 125 nM 11-deoxycorticosterone for the CYP11B2 assay or 250 nM 11-deoxycortisol for the CYP11B1 assay). The reaction was carried out for 3 hours at 37° C., 5% CO2 and was stopped by harvesting the supernatants. The amount of product in the supernatant (aldosterone for CYP11B2 assay and cortisol for the CYP11B1 assay) was measured using HTRF-based assay kit (Aldosterone HTRF-CisBio#64ALDPEB, Cortisol HTRF-CisBio #63IDC002-CORT). IC50s for the inhibitor were determined by plotting the amount of product formed against the concentration of inhibitor using sigmoidal dose-response curve (variable slope) fit in GraphPad.

human CYP11B1 = human CYP11B1 (Homo sapiens (Human), UniProt P15538); assay: V79-Human-CYP11B1 cell assay (cortisol formation from 11-deoxycortisol, HTRF); type: cell-based; settings: for IC50: V79 cells stably expressing human CYP11B1, 250 nM 11-deoxycortisol, 3 hours
Sequence of human CYP11B1 (P15538 25-503): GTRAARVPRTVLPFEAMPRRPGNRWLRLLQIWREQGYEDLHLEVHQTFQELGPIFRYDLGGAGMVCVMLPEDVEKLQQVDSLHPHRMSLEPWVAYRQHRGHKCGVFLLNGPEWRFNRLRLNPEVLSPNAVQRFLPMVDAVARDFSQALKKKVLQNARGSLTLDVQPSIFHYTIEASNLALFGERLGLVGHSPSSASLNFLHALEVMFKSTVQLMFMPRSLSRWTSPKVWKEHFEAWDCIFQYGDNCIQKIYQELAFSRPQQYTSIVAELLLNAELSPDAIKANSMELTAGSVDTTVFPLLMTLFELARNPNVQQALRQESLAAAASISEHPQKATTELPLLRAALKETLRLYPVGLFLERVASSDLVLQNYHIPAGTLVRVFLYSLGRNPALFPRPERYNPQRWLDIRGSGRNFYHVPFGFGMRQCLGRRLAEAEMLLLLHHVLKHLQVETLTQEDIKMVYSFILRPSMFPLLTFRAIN
Experimental: as §1

Sequence of human CYP11B2 (P19099 25-503): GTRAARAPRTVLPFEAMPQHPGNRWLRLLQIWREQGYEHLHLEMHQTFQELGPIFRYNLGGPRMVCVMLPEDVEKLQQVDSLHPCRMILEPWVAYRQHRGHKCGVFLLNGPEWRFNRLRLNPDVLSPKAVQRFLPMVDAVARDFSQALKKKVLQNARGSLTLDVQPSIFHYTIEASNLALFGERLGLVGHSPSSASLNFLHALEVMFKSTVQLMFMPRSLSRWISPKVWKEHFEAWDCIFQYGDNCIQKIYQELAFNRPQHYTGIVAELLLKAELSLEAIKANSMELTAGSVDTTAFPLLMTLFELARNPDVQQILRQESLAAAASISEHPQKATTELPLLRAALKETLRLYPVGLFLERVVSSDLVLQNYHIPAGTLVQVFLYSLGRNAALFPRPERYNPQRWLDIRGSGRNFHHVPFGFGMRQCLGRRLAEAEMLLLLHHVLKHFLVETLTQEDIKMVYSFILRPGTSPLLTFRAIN

SMILES | IC50 (human CYP11B2) | IC50 (human CYP11B1) | inhibition at 10 µM (human CYP11B1) | inhibition at 1 µM (human CYP11B2)
Cc1cncc(-c2nn3c(c2C)NC(=O)CC3)c1 [Example 7, 3-methyl-2-(5-methylpyridin-3-yl)-6,7-dihydropyrazolo[1,5-a]pyrimidin-5(4H)-one] | 2.2 nM | 282 nM |  | 
Cc1cncc(-c2nn3c(c2C)N(C)C(=O)CC3)c1 [Example 8, 3,4-dimethyl-2-(5-methylpyridin-3-yl)-6,7-dihydropyrazolo[1,5-a]pyrimidin-5(4H)-one] | 9.8 nM | 3720 nM |  | 
CCc1c(-c2cncc(C)c2)nn2c1N(C)C(=O)CC2 [Example 9, 3-ethyl-4-methyl-2-(5-methylpyridin-3-yl)-6,7-dihydropyrazolo[1,5-a]pyrimidin-5(4H)-one] | 7.8 nM | 2340 nM |  | 
Cc1cncc(-c2nn3c(c2C2CC2)NC(=O)CC3)c1 [Example 10, 3-cyclopropyl-2-(5-methylpyridin-3-yl)-6,7-dihydropyrazolo[1,5-a]pyrimidin-5(4H)-one] | 13.2 nM |  | 71% | 
Cc1c(-c2cncc(F)c2)nn2c1N(C)C(=O)CC2 [Example 12, 2-(5-fluoropyridin-3-yl)-3,4-dimethyl-6,7-dihydropyrazolo[1,5-a]pyrimidin-5(4H)-one] | 19.1 nM | 1820 nM |  | 
CCc1c(-c2cncc(F)c2)nn2c1NC(=O)CC2 [Example 13, 3-ethyl-2-(5-fluoropyridin-3-yl)-6,7-dihydropyrazolo[1,5-a]pyrimidin-5(4H)-one] | 11.7 nM | 1350 nM |  | 
Cc1c(-c2cncc(F)c2)nn2c1NC(=O)CC2 [Example 15, 2-(5-fluoropyridin-3-yl)-3-methyl-6,7-dihydropyrazolo [1,5-a]pyrimidin-5(4H)-one] | 30.9 nM | 3630 nM |  | 
O=C1CCn2nc(-c3cncc(F)c3)c(C3CC3)c2N1 [Example 19, 3-cyclopropyl-2-(5-fluoropyridin-3-yl)-6,7-dihydropyrazolo[1,5-a]pyrimidin-5(4H)-one] | 102 nM |  | 38% | 
Cc1cncc(-c2nn3c(c2C#N)NC(=O)CC3)c1 [Example 25, 2-(5-methylpyridin-3-yl)-5-oxo-4,5,6,7-tetrahydropyrazolo[1,5-a]pyrimidine-3-carbonitrile] |  |  |  | 61%
N#Cc1c(-c2cncc(Cl)c2)nn2c1NC(=O)CC2 [Example 26, 2-(5-chloropyridin-3-yl)-5-oxo-4,5,6,7-tetrahydropyrazolo[1,5-a]pyrimidine-3-carbonitrile] |  | 1070 nM |  | 51%

Reference: patent US9351973B2, “Pyrazolopyridyl compounds as aldosterone synthase inhibitors” (Merck Sharp & Dohme Corp., priority 2011, dated 2016)
